Measured values from US20040123344A1, “Novel gene encoding an f-box protein which regulates leaf longevity in arabidopsis thaliana and mutant gene thereof” (priority 2000, published 2004).

T1: 35S-labeled ORE9 (50-693), in vitro translated (Arabidopsis thaliana, UniProt Q9SIM9 50-693)
T1 sequence: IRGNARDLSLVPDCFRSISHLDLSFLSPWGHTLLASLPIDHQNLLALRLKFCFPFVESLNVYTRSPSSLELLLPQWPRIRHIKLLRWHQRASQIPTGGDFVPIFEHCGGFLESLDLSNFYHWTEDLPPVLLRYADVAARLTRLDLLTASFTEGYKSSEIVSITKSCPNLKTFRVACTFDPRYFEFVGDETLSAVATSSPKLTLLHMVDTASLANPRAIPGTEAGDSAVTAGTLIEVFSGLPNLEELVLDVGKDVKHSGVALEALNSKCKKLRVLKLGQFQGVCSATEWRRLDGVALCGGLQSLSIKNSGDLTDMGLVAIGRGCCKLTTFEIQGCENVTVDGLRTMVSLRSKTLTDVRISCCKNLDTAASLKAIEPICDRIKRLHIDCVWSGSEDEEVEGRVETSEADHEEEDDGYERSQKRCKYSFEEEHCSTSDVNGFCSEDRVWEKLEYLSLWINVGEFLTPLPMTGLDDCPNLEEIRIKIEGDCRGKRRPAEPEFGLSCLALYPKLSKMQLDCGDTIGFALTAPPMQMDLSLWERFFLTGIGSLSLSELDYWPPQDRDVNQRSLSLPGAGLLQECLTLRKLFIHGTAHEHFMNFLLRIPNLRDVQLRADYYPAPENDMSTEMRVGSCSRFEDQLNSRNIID


Tests used:
ore9 mutant leaves = assay type: in vivo, Arabidopsis thaliana; details: detached leaves at 12 DAE, 50 μM ABA or 50 μM MeJA in MES buffer pH 5.8, or 4.5 μM ethylene gas, three days at 22° C., continuous light
Description: (§1) In order to measure photosynthetic activities, a method of Oh S. A. et al., (Oh S. A. et al., Plant Mol. Biol. 30: 939, 1996) was used. First, the respective leaves were dark-treated for 15 minutes and measured for fluorescence of chlorophylls using a plant efficiency analyzer. The photosynthetic activity was expressed as photochemical efficiency of photosystemII (PSII) using a fluorescent property of chlorophylls. The photochemical efficiency was expressed as the ratio of maximum variable fluorescence (Fv) to maximum value of fluorescence (Fm) (Fv/Fm). As the ratio is increased, the photosynthesis efficiency improves.
(§2) Although senescence of leaves is known as a genetic programmed process, the initiation and progress of senescence can be changed by phytohormones, such as abscisic acid (ABA), methyl jasmonate (MeJA) and ethylene, that are plant growth inhibitory substances (Hensel et al., Plant Cell 5:553, 1993; Weidhase et al., Physiol. Plant 69:161, 1987; and Zeevaart et al, Annu. Rev. Plant Physiol. Plant Mol. Biol. 39:439, 1998). Thus, in this experiment, a change in leaf longevity of the ore9 mutant according to treatment with phytohormones was examined by measuring changes in photosynthetic activity and chlorophyll content. Detached leaves were floated in 3 mM 2-[N-morpholino]-ethanesulfonic acid (MES) buffer, pH 5.8, containing 50 μM ABA or 50 μM MeJA, while continuously being exposed to light. Treatment with ethylene was carried out by cultivation in a glass box containing 4.5 μM ethylene gas. The treatments with phytohormones as described above were carried out for three days at 22° C. with continuous exposure to light. At this time, 12 independent leaves at 12 DAE were used as samples, and the chlorophyll content and the photosynthetic activity were measured in the same manner as in Example 2.

[1] = system: wild type Arabidopsis thaliana leaves; experiment: Phytohormone treatment of detached leaves, photosynthetic activity (Fv/Fm of PSII); assay type: in vivo; details: detached leaves at 12 DAE, 50 μM ABA or 50 μM MeJA in MES buffer pH 5.8, or 4.5 μM ethylene gas, three days at 22° C., continuous light
Description: as §1, §2

[2] = biological target: T2, GAL4-BD fusion of ORE9 (50-693), expressed from pGBT9-ORE9 (50-693) [2] (Arabidopsis thaliana); experiment: yeast two-hybrid assay
T2 construct: Yeast two-hybrid bait expressed in yeast HF7c; also called ORE9 derivative from which the F-box region was removed

[3] = biological target: T1, 35S-labeled ORE9 (50-693), in vitro …; experiment: in vitro GST pull-down of 35S-labeled protein
Text: In order to examine that ORE9 protein or derivatives thereof directly bind with ASK1, a GST-ASK1 fusion protein and a ³⁵S-labeled ORE9 protein produced by in vitro translation were subjected to in vitro binding assay. To obtain a glutathione S-transferase (GST) protein and a GST-ASK1 fusion protein, a vector pGEX (APBiotech, Co.) and a vector pGEX-ASK1 were constructed, which express the above proteins, respectively. Artificial sequences represented by SEQ ID NO: 14 and SEQ ID NO: 15 were used as PCR primers to amplify a gene encoding the ASK1 fragment. The resulting PCR product was digested with EcoRI and NcoI restriction enzymes, and inserted into the restriction enzyme sites of the pGEX vector. Escherichia coli BL21(DE3) pLysS was transformed with the resulting two vectors, and GST and GST-ASK1 fusion proteins were expressed. The GST and GST-ASK1 fusion proteins were purified by chromatography with glutathione-Sepharose 4B beads. The purified proteins was subjected to electrophoresis with SDS-polyacryamide gets, dyed with Coomassie blue, and measured for their amount. […]
The proteins were quantitatively analyzed with SDS-PAGE and BAS radioanalytic imaging system (Japan). […]

[4] = biological target: T3, GAL4-BD fusion of ORE9 (1-49), expressed from pGBT9-ORE9 (1-49) [1] (Arabidopsis thaliana); experiment: yeast two-hybrid assay, combination [1+4]
T3 construct: Yeast two-hybrid bait expressed in yeast HF7c; also called fragment containing only the F-box region of ORE9; pGBT-ORE9(1-49)[1]

| Molecule | photosynthetic ability maintained after treatment (ore9 mutant leaves) | photosynthetic activity after treatment [1] | further results |
| --- | --- | --- | --- |
| CC1=CC(=O)CC(C)(C)[C@@]1(O)/C=C/C(C)=C\C(=O)O [ABA, abscisic acid] | 93% | 65% | – |
| CC/C=C\CC1C(=O)CCC1CC(=O)OC (stereo not drawn) [MeJA, methyl jasmonate] | 70% | 38% | – |
| C=C [ethylene] | 82% | 54% | – |
| GAL4-AD fusion of ASK1(1-160), expressed from pGAD424-ASK1(1-160) [3] (other, Arabidopsis, UniProt Q39255 1-160, looked up, not shown: large carriers, range 1-160; also called Arabidopsis SKP1 homolog 1; pGAD-ASK1(1-160)[3]) MSAKKIVLKSSDGESFEVEEAVALESQTIAHMVEDDCVDNGVPLPNVTSKILAKVIEYCKRHVEAAASKAEAVEGAATSDDDLKAWDADFMKIDQATLFELILAANYLNIKNLLDLTCQTVADMIKGKTPEEIRTTFNIKNDFTPEEEEEVRRENQWAFE | – | – | binding result [2]: no binding |
| GST-ASK1 fusion protein (other, Arabidopsis, UniProt Q39255 1-160, looked up, not shown: a dimerising Fc or GST, also called GSK-ASK1) MSAKKIVLKSSDGESFEVEEAVALESQTIAHMVEDDCVDNGVPLPNVTSKILAKVIEYCKRHVEAAASKAEAVEGAATSDDDLKAWDADFMKIDQATLFELILAANYLNIKNLLDLTCQTVADMIKGKTPEEIRTTFNIKNDFTPEEEEEVRRENQWAFE | – | – | binding result [3]: no binding |
| GAL4-AD fusion of ASK2(1-172), expressed from pGAD424-ASK2(1-172) [4] (other, Arabidopsis, UniProt Q9FHW7 1-171, looked up, not shown: large carriers, range 1-172; Yeast two-hybrid prey; also called Arabidopsis SKP1 homolog 2) MSTVRKITLKSSDGENFEIDEAVALESQTIKHMIEDDCTDNGIPLPNVTSKILSKVIEYCKRHVEAAEKSETTADAAAATTTTTVASGSSDEDLKTWDSEFIKVDQGTLFDLILAANYLNIKGLLDLTCQTVADMIKGKTPEEIRKTFNIKNDFTPEEEEEVRRENQWAFE | – | – | binding result [4]: no binding |
